Measurements published in ChEMBL document CHEMBL3407465, “Interaction of human organic anion transporter polypeptides 1B1 and 1B3 with antineoplastic compounds” (Eur J Med Chem, 2015).

Columns and labels:
[1] = target: T1, Solute carrier organic anion transporter family member 1B1 (Homo sapiens, UniProt Q9Y6L6); test: Stimulation of human OATP1B1-mediated [3H]estrone 3-sulfate at 100 uM after 5 mins relative to control; assay type: ADME
T1 sequence (Q9Y6L6 whole entry): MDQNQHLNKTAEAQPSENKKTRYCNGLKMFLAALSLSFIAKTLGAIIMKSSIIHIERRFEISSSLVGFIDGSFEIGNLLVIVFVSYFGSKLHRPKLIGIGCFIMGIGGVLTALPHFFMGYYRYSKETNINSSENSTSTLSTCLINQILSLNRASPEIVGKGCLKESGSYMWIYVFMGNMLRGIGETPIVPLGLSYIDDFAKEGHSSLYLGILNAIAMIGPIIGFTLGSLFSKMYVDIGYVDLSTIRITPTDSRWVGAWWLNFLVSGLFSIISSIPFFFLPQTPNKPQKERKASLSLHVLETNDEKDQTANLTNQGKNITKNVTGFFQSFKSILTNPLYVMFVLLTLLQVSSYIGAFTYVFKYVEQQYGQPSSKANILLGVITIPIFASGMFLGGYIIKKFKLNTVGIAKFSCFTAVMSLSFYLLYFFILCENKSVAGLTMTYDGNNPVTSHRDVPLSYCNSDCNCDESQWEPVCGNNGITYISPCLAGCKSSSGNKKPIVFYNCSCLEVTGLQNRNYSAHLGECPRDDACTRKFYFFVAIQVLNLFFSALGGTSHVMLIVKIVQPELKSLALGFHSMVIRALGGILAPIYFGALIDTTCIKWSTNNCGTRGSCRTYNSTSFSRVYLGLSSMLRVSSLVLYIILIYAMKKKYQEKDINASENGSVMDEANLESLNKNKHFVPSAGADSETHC

[2] = target: T2, Solute carrier organic anion transporter family member 1B3 (Homo sapiens, UniProt Q9NPD5); test: Inhibition of human OATP1B3-mediated [3H]CCK-8 at 100 uM after 5 mins relative to control; assay type: ADME
T2 sequence (Q9NPD5 whole entry): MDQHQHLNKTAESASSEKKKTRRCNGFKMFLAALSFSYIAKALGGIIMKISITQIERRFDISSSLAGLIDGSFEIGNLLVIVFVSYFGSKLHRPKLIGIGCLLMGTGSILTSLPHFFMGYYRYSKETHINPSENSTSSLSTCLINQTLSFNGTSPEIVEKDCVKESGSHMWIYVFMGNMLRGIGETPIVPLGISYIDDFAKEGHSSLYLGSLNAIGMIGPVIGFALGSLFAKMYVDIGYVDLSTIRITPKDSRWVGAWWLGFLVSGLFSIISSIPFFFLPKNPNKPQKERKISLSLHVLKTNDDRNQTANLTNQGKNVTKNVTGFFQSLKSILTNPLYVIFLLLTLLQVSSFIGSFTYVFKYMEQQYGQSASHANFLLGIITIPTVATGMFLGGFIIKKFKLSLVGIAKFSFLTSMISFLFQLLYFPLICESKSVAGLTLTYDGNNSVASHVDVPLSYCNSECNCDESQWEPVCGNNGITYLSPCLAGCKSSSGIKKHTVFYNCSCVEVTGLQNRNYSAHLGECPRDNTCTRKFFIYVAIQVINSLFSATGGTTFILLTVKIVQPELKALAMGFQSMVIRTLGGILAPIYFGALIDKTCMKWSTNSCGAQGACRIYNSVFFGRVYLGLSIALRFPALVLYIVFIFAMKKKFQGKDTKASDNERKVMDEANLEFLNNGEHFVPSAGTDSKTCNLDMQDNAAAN

[3] = target: T2, Solute carrier organic anion transporter family member 1B3; test: Stimulation of human OATP1B3-mediated [3H]CCK-8 at 100 uM after 5 mins relative to control; assay type: ADME
[4] = target: T2, Solute carrier organic anion transporter family member 1B3; test: Inhibition of human OATP1B3-mediated [3H]CCK-8 after 5 mins by Dixon plot method; assay type: ADME
[5] = target: T1, Solute carrier organic anion transporter family member 1B1; test: Inhibition of human OATP1B1-mediated [3H]estrone 3-sulfate at after 5 mins by Dixon plot method; assay type: ADME
[6] = target: T1, Solute carrier organic anion transporter family member 1B1; test: Inhibition of human OATP1B1-mediated [3H]estrone 3-sulfate at 100 uM after 5 mins relative to control; assay type: ADME
OATP1B3 = target: T3, OATP1B3 (Homo sapiens, UniProt Q9NPD5); test: Inhibition of OATP1B3 (unknown origin)-mediated sodium fluorescein expressed in CHO cells at 10 uM; assay type: ADME, cell-based; conditions: CHO cells expressing OATP1B3, probe sodium fluorescein
T3 sequence (Q9NPD5 whole entry): T2 sequence (Q9NPD5 whole entry)

Row | SMILES | Activity [1] | inhibition (INH) [2] | Activity [3] | further results
1 | CCc1c2c(nc3ccc(OC(=O)N4CCC(N5CCCCC5)CC4)cc13)-c1cc3c(c(=O)n1C2)COC(=O)[C@]3(O)CC [IRINOTECAN] | 93.3% | 34.3% |  | 
2 | Nc1ccn([C@@H]2O[C@H](CO)[C@@H](O)C2(F)F)c(=O)n1 [GEMCITABINE] |  |  | 11.1% | 
3 | S=P(N1CC1)(N1CC1)N1CC1 [THIOTEPA] | 11.9% |  |  | 
4 | O=C(O)CCCc1ccc(N(CCCl)CCCl)cc1 [CHLORAMBUCIL] | 18.8% | 66% |  | IC50 [4]: 80.7 µM; Ki [4]: 37.4 µM
5 | O=P1(NCCCl)OCCCN1CCCl (centres undefined) [IFOSFAMIDE] | 7.4% |  |  | 
6 | CC[C@]1(O)C[C@@H]2CN(CCc3c([nH]c4ccccc34)[C@@](C(=O)OC)(c3cc4c(cc3OC)N(C)[C@H]3[C@@](O)(C(=O)OC)[C@H](OC(C)=O)[C@]5(CC)C=CCN6CC[C@]43[C@@H]65)C2)C1 [VINBLASTINE] |  | 81.5% |  | IC50 [5]: 46.8 µM; Ki [5]: 10.2 µM; IC50 [4]: 43.5 µM; Ki [4]: 18.6 µM; inhibition (INH) [6]: 64.1%
7 | O=P1(N(CCCl)CCCl)NCCCO1 (centres undefined) [CYCLOPHOSPHAMIDE ANHYDROUS] | 5.6% |  | 8.7% | 
8 | COc1cccc2c1C(=O)c1c(O)c3c(c(O)c1C2=O)C[C@@](O)(C(=O)CO)C[C@@H]3O[C@H]1C[C@H](N)[C@H](O)[C@H](C)O1 [DOXORUBICIN] |  | 53.6% |  | inhibition (INH) [6]: 12%
9 | O=C1c2c(O)ccc(O)c2C(=O)c2c(NCCNCCO)ccc(NCCNCCO)c21 [MITOXANTRONE] |  | 84.4% |  | IC50 [4]: 3.39 µM; Ki [4]: 3.1 µM; inhibition (INH) [6]: 18.9%
10 | Nc1nc(Cl)nc2c1ncn2[C@H]1C[C@H](O)[C@@H](CO)O1 [CLADRIBINE] | 15.9% |  | 10% | 
11 | Cn1c(CCCC(=O)O)nc2cc(N(CCCl)CCCl)ccc21 [BENDAMUSTINE] |  | 48.8% |  | 
12 | CC(=O)O[C@H]1C(=O)[C@@]2(C)[C@H]([C@H](OC(=O)c3ccccc3)[C@]3(O)C[C@H](OC(=O)[C@H](O)[C@@H](NC(=O)c4ccccc4)c4ccccc4)C(C)=C1C3(C)C)[C@]1(OC(C)=O)CO[C@@H]1C[C@@H]2O [PACLITAXEL] |  | 94.4% |  | IC50 [4]: 0.26 µM; Ki [4]: 1.8 µM; inhibition at 10 µM (OATP1B3): 52.9%
13 | Nc1ccn([C@@H]2O[C@H](CO)[C@@H](O)[C@@H]2O)c(=O)n1 [CYTARABINE] |  |  | 17.7% | 
14 | CC[C@]1(O)C[C@H]2CN(CCc3c([nH]c4ccccc34)[C@@](C(=O)OC)(c3cc4c(cc3OC)N(C=O)[C@H]3[C@@](O)(C(=O)OC)[C@H](OC(C)=O)[C@]5(CC)C=CCN6CC[C@]43[C@@H]65)C2)C1 [VINCRISTINE] |  | 65.1% |  | IC50 [4]: 36.8 µM; Ki [4]: 17.6 µM; inhibition (INH) [6]: 28.1%
15 | C[C@]12C=CC(=O)C=C1CC[C@@H]1[C@@H]2C(=O)C[C@@]2(C)[C@H]1CC[C@]2(O)C(=O)CO [PREDNISONE] |  | 12.5% |  | inhibition (INH) [6]: 9.8%
16 | CN(Cc1cnc2nc(N)nc(N)c2n1)c1ccc(C(=O)N[C@@H](CCC(=O)O)C(=O)O)cc1 [METHOTREXATE] |  |  | 12% | 
17 | Nc1nc(F)nc2c1ncn2[C@@H]1O[C@H](CO)[C@@H](O)[C@@H]1O [FLUDARABINE] |  |  | 12% | 
